The text below walks through data of patent US11774460B2, “Diagnostic or predictor of relapsing remitting multiple sclerosis” (Dignity Health, priority 2016, dated 2023).

The assay has as its system Factor VIII activity. Description: Factor VIII activity in blood of multiple sclerosis patients under treatment. Format: in vivo, human. Conditions: MS patient with elevated Factor VIII activity during exacerbation. From the text:
In various embodiments, disclosed herein is a method of detecting or predicting a relapse of multiple sclerosis in an individual afflicted with a form of multiple sclerosis, comprising: (a) providing a blood sample of the individual; (b) testing the blood sample to determine a protein activity or protein level, wherein the protein is Factor VIII, von Willebrand factor, or Protein C; and (c) detecting a relapse of multiple sclerosis in the individual if the protein activity or protein level is elevated compared to the protein activity or protein level in an individual not afflicted with the form of multiple sclerosis or the patient's own lowest baseline value as a form of a control. In some of these embodiments, the form of multiple sclerosis is relapsing-remitting multiple sclerosis with or without secondary progression. In some embodiments, the multiple sclerosis in the individual is in remission. In some embodiments, the blood sample test to determine the protein activity or protein level is performed simultaneously with other blood tests, such as, partial thromboplastin time (PTT) test, International Normalized Ratio (INR) test, and erythrocyte sedimentation rate (ESR) test. In some of these embodiments, the blood sample tests are performed at least once per month during the treatment period and/or monitoring period of multiple sclerosis. […]

Consider “TYSABRI: disease-modifying therapy for multiple sclerosis named only by trade name”, for which the “Factor VIII activity after treatment” value is listed as “returned to normal”.
